This is an account of results in the NIST ThermoML archive (doi:10.1021/je049586l).

Numbers after ± are expanded uncertainties.

This data set can be described thus: molar enthalpy of vaporization or sublimation. Particulars: Crystal, Static calorimetry.

For `COC(=O)c1cccc(C(=O)OC)n1` [2,6-pyridinedicarboxylic acid, dimethyl ester], the molar enthalpy (385 K) was 31.1 ± 1.82 kcal/mol.
On to `O=C(O)c1ccc(C(=O)O)nc1` [2,5-pyridinedicarboxylic acid], for which the molar enthalpy (492 K) was found to be 46.5 ± 1.29 kcal/mol.
Regarding `O=C(O)c1cccc(C(=O)O)n1` [pyridine-2,6-dicarboxylic acid], where the note is “494 K”, the molar enthalpy is 40.2 ± 2.63 kcal/mol.
